Laboratory results reported in patent publication US12274726B2, “Enteric aerobization therapy” (LPOXY THERAPEUTICS, INC., priority 2021, dated 2025).

Assays:
[1] = system: Clostridioides difficile ATCC 43255; details: for cure rate: mouse CDI model, 14 days follow-up; for survival: treatment study day 0 to 4, followed for 14 days after inoculum, 10 mice per group
Description: Because of the more humanlike characteristics for mouse CDI model, it was chosen to evaluate enteric aerobization.
Administration of enteric aerobization therapies presented several challenges with the mouse model. Administration of experimental compounds in rodents is normally performed via gastric gavage using a solution of the test article. However, this could not be accomplished with enteric aerobization therapy because dissolving the mixture prior to administration would result in premature loss of oxygen effervescence before entering the intestine. Further, there is uncertainty that rodents reliably pass enteric coated capsules or tablets from the stomach to the intestine. […] Finally, the small capsule or tablet sizes required for rodent administration severely limits dosages.
Thirty C57BL/6 female mice (18-22 g) fitted with duodenal catheters externalized and fitted with access button ports were purchased from Charles River Laboratories and singly housed in a temperature and humidity-controlled room with a 12-hour light cycle. The mice were divided into 3 groups of 10.
The mice were pretreated with an antibiotic cocktail in their drinking water for 8 consecutive days. This antibiotic cocktail was composed of 1% glucose, 500 mcg/mL kanamycin, 44 mcg/mL gentamicin, 1062.5 units per milliliter colistin, 269 mcg/mL metronidazole, 156 mcg/mL ciprofloxacin, 100 mcg/mL ampicillin, and 56 mcg/mL vancomycin. The antibiotic cocktail and drinking water were replaced every 2 to 3 days. Five days prior to infection the antibiotic water was removed and normal drinking water was provided to the animals. Three days prior to infection the animals received a single dose of clindamycin 10 mg per kilogram via oral administration in a volume of 10 mL per kilogram.
On study Day 0 mice were inoculated with the bacterial suspension of 5×10^5 CFU Clostridioides difficile ATCC 43255 via oral gavage. Eight hours after inoculation administration of vehicle, antibiotic control, and test article was initiated according to the following. The vehicle a.k.a. infection control group of 10 mice received 80 μL per hour 100% pure nitrogen gas via duodenal catheter. The infection control group of 10 mice received 50 mg/kg vancomycin via oral gavage once daily. […] Administration was continued from study day 0 to study day 4, a total of 5 days. The mice were followed for 14 days after inoculum recording daily weights and clinical observations. Animals that appeared severely moribund were euthanized. At the end of the study all animals were humanely euthanized.

[2] = up to maximum bolus tested, 200 microliters every 6 hours (8 mL/kg per bolus; 32 mL/kg/day)
Description: In a separate experiment using the above conditions the tolerance of bolus injection of 100% oxygen gas was tested.

For `O=O` [EAT, oxygen], the “clinical severity (total clinical score) compared to infection control group” value ([1]; FIG. 9) was “mildly ill”, the “animals showing clinical signs of infection/recurrence in the 2nd week after inoculation, after treatment” value ([1]; days 8-14) was “no recurrent infections” and the “adverse effects due to gas infusion” value ([1]; efficacy experiments, 3.2 mL/kg/hr, 76.8 mL/kg/day) was “no adverse effects”. The cure rate [1] was 100%, the survival [1] was 100% and the “adverse effects of bolus injection” value [2] was “No adverse effects were observed”.

Work on `CN[C@H](CC(C)C)C(=O)N[C@H]1C(=O)N[C@@H](CC(N)=O)C(=O)N[C@H]2C(=O)N[C@H]3C(=O)N[C@H](C(=O)N[C@H](C(=O)O)c4cc(O)cc(O)c4-c4cc3ccc4O)[C@H](O)c3ccc(c(Cl)c3)Oc3cc2cc(c3O[C@@H]2O[C@H](CO)[C@@H](O)[C@H](O)[C@H]2O[C@H]2C[C@](C)(N)[C@H](O)[C@H](C)O2)Oc2ccc(cc2Cl)[C@H]1O` [vancomycin, reference compound] yielded a cure rate [1] of 30% and a survival [1] of 100%.
